This note sets out measurements from patent publication US9611223B2, “3-aryl-5-substituted-isoquinolin-1-one compounds and their therapeutic use” (INSTITUTE OF CANCER RESEARCH: ROYAL CANCER HOSPITAL (THE), priority 2013, dated 2017).

“And” between values parts separate entries of the source, which are not always exact repeats. Equal entries are not always repeated. Where two headings read alike, the source gives them in different places.

One assay addresses T1, TNKS1 (Homo sapiens, UniProt O95271, M1266I).
T1 construct: expresses the active PARP domain of TNKS1 as a polyhistidine tagged protein; made in house; host or cells: E. coli Rosetta2(DE3)
Put plainly: TNKS1/PARP Biochemical Assay. Here is the method:
TNKS1/PARP Biochemical Assay
Tankyrase activity was assayed using a 96-well format HT Universal Chemiluminescent PARP Assay Kit (Trevigen, Inc, cat. no. 4676-096-K) according to the manufacturer's instructions. In short, tankyrase/PARP activity is quantified by the incorporation of biotinylated nicotinamide adenine dinucleotide (biotin-NAD^+) onto the immobilised pseudo substrate, Histone. The extent of poly(Biotin-ADP)ribosylation (PARylation) in the presence of increasing dose of inhibitor is then quantified by binding of streptavidin conjugated horse radish peroxidase (strep-HRP) followed by chemiluminescent detection.
Prior to assay initiation, inhibitor stocks were prepared in aqueous DMSO (10% (v/v)) from 5 millimolar (mM) stock in 100% DMSO (Sigma Aldrich, cat. no. 265855) as 10× concentrations. For the primary assay (i.e., single dose at 1 micromolar (μM) final concentration) this corresponded to 10 μM in 10% DMSO. For IC50 determination, this corresponded to 100 μM, 30 μM, 10 μM, 3.0 μM, 1.0 μM, 0.30 μM, 0.10 μM and 0 μM in 10% DMSO for final concentrations of 10 μM, 3.0 μM, 1.0 μM, 0.30 μM, 0.10 μM, 0.030 μM, 0.010 μM, and 0 μM with 1% (v/v) final DMSO. The assay was initiated by the addition of 10× inhibitor (5 microliters (μL)) or 10% aqueous DMSO (5 μL) to triplicate wells. Twenty microliters of diluted TNKS1 protein (200 nanomolar (nM) final conc.) in PARP buffer (Trevigen, Inc, cat. no. 4671-096-02) was added to each histone coated well, which was previously hydrated with PARP buffer. Triplicate wells with 1% DMSO/buffer alone (no enzyme) were also added as a measure of assay ‘noise’. Positive control for PARP inhibition included the addition of 4-amino-1,8-naphthalimide (Sigma Aldrich, cat. no A0966) in corresponding doses.
The mixture was incubated for 10 minutes at room temperature and the PARylation reaction initiated by the addition of PARP cocktail (25 μL, Trevigen, Inc) containing biotin-NAD^+ (Trevigen, Inc, cat. no. 4670-500-01), activated DNA (Trevigen, Inc, cat. no. 4671-096-06) and PARP buffer. The reaction was incubated for 1.5 hours (for TNKS1) or 1 hour (for PARP1) at room temperature. The reaction mixture was then removed by aspiration and the wells washed (3×200 μL) with phosphate buffered saline containing Triton X-100 (0.1% (v/v), Sigma Aldrich cat. no. T8787). The wells were then washed (3×200 μL) with phosphate buffered saline and then incubated with strep-HRP (50 μL, Trevigen, Inc, cat. no. 4800-30-06) in strep-diluent (1:500 dilution, Trevigen Inc, cat. no. 4671-096-04) for 1 hour at room temperature. The Strep-HRP mixture was then aspirated and the wells washed (3×200 μL) with phosphate buffered saline containing Triton X-100 (0.1% (v/v)) followed by phosphate buffered saline (3×200 μL) and then incubated with PeroxyGlow™ reagent (100 μL, Trevigen, Inc, cat. nos. 4675-096-01, 4675-096-02, room temperature, mixed 1:1).
The amount of light emitted as a result of the peroxidase-chemiluminescent reagent reaction was in proportion to the extent of poly(Biotin-ADP)ribosylation and was immediately measured with a Victor^2 plate reader (Perkin Elmer, luminescence detection assay, luminescent units described as ‘Counts Per Second’ (CPS)). The data were normalised to the DMSO control after subtraction of ‘noise’ and was expressed as % PARP activity as a function of inhibitor dose. Inhibition was expressed as 100%−(% PARP activity). Dose response curves used to determine IC50 values were Log transformed and analysed by non-linear regression analysis (variable slope) using Prism (GraphPad Software, Inc) and were presented as IC50 with 95% confidence interval to determine relative potency.
Tankyrase1 (pNIC-Bsa4-TNKS1^PARP) expression construct was obtained from the Structural Genomics Consortium (SGC) and expresses the active PARP domain of TNKS1 as a polyhistidine tagged protein. […]

The test system of another assay is COLO320DM cells. Put plainly: Tumour Cell Inhibition Assay (COLO320DM cells). The class given is cell-based. To be noted: Homo sapiens, COLO 320DM, 120 h, five day exposure. The method, then: Tumour Cell Inhibition in Colorectal Tumour Cells
In order to determine the efficacy of acute dosing of putative TNKS inhibitors, five day exposure cell viability assays were carried out. This included the sparse seeding of cells in a 96-well plate followed by continuous dosing of cells over a five day period.
Appropriate cell lines (HT55, COLO320DM and SW620) were seeded at 500 cells/well in a 96-well plate in MEM (HT55), RPMI (COLO320DM) or DMEM (SW620) supplemented with FBS. After overnight incubation, cells were treated with the appropriate putative TNKS inhibitor in 6 or 10 concentrations ranging from 0 μM to 10 μM at 0.2% final DMSO concentration in appropriate media supplemented with 10% or 0.5% FBS. Dosages were carried out in triplicate. Termination of the assay and measurement of cell viability was achieved by the use of Cell Titre Glo reagent and luminescence measurement on an appropriate plate reader.
Dose response curves used to determine SF50 values were Log transformed and analysed by non-linear regression analysis (variable slope) using Prism (GraphPad Software, Inc).

The mark [1] stands for this setting: read-out: cell inhibitory SF50 (COLO320DM).

T1 sequence (O95271 1112-1317 M1266I): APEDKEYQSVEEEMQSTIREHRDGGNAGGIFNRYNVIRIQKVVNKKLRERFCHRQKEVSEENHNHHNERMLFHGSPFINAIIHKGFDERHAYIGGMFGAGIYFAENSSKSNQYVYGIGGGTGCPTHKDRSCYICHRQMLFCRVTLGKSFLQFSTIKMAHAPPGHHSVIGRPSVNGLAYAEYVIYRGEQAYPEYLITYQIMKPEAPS

On to `CC(c1ccc(-c2cc3c(C#N)cccc3c(=O)[nH]2)cc1)n1ccnc1CO` (centres unmarked) [IQ-038], for which the IC50 against TNKS1 was below 0.05 µM; in the assay on COLO320DM cells (setting [1]), below 5 µM. `Cc1nnc(N2CCN(Cc3ccc(-c4cc5c(CN)cccc5c(=O)[nH]4)cc3)CC2)o1` [IQ-022] displayed an IC50 at TNKS1 below 0.05 µM. As for `Cc1nnc(N2CCN(Cc3ccc(-c4cc5c(C#N)cccc5c(=O)[nH]4)cc3)CC2)o1` [IQ-020], the results for the IC50 against TNKS1 and in the assay with COLO320DM cells (setting [1]) were below 0.05 µM and below 5 µM, respectively. The corresponding values for `Cc1nnc(N2CCCN(c3ccc(-c4cc5c(C#N)cccc5c(=O)[nH]4)cc3)CC2)o1` [IQ-059, 3-{4-[4-(5-Methyl-[1,3,4]oxadiazol-2-yl)-[1,4]diazepan-1-yl]-phenyl}-1-oxo-1,2-dihydro-isoquinoline-5-carbonitrile] are below 0.05 µM and below 5 µM. On TNKS1, `COCc1nccn1Cc1ccc(-c2cc3c(CN)cccc3c(=O)[nH]2)cc1` [IQ-023, 5-Aminomethyl-3-[4-(2-methoxymethyl-imidazol-1-ylmethyl)-phenyl]-2H-isoquinolin-1-one] registered an IC50 below 0.05 µM.

Consider `COCc1nccn1C(C)c1ccc(-c2cc3c(C#N)cccc3c(=O)[nH]2)cc1` (centres unmarked) [IQ-028], for which the IC50 at TNKS1 was below 0.05 µM; in the assay on COLO320DM cells (setting [1]), below 5 µM. The corresponding values for `Cc1nnc(N2CCN(Cc3ccc(-c4cc5c(C#N)cc(F)cc5c(=O)[nH]4)cc3)CC2)o1` [IQ-039] are below 0.05 µM and below 5 µM. As for `CN(C)Cc1nccn1Cc1ccc(-c2cc3c(C#N)cccc3c(=O)[nH]2)cc1` [IQ-016], the IC50 against TNKS1 is below 0.05 µM; in the assay with COLO320DM cells (setting [1]) it was below 5 µM. On TNKS1, `Cc1nnc(N2CCN(c3ccc(-c4cc5c(C#N)cccc5c(=O)[nH]4)cc3)CC2)o1` [IQ-055, 3-{4-[4-(5-Methyl-[1,3,4]oxadiazol-2-yl)piperazin-1-yl]phenyl}-1-oxo-1,2-dihydroisoquinoline-5-carbonitrile] displayed an IC50 below 0.05 µM. In the case of `N#Cc1cccc2c(=O)[nH]c(-c3ccc(Cn4ccnn4)cc3)cc12` [IQ-030], the results for the IC50 at TNKS1 and in the assay with COLO320DM cells (setting [1]) were below 0.05 µM and below 5 µM, respectively. Consider `CC(C)(C)OC(=O)N1CCN(Cc2ccc(-c3cc4c(C#N)cccc4c(=O)[nH]3)cc2)CC1` [IQ-046], for which, in the assay on COLO320DM cells (setting [1]), the IC50 was below 5 µM. `Cc1nnc(N2CCN(Cc3ccc(-c4cc5c(C#N)cccc5c(=O)[nH]4)cc3)C(C)C2)o1` (centres unmarked) [IQ-040]: the IC50 against TNKS1 is below 0.1 µM; in the assay with COLO320DM cells (setting [1]), below 5 µM.

On to `Cc1nnc(N2CCCN(Cc3ccc(-c4cc5c(C#N)cccc5c(=O)[nH]4)cc3)CC2)o1` [IQ-049], for which the IC50 against TNKS1 is below 0.05 µM; in the assay on COLO320DM cells (setting [1]) it was below 5 µM. The corresponding values for `Cc1nnc(N(C)Cc2ccc(-c3cc4c(C#N)cccc4c(=O)[nH]3)cc2)o1` [IQ-042] are below 0.05 µM and below 5 µM. In turn, `CCc1nnc(N2CCN(Cc3ccc(-c4cc5c(C#N)cccc5c(=O)[nH]4)cc3)CC2)o1` [IQ-044] had an IC50 against TNKS1 below 0.05 µM. `Cc1nnc(N2CCN(Cc3ccc(-c4cc5c(C#N)cccc5c(=O)[nH]4)cc3)CC2C)o1` (centres unmarked) [IQ-056]: the IC50 against TNKS1 was below 0.05 µM; with COLO320DM cells (setting [1]), below 5 µM. For the compound `CC(C)(C)OC(=O)N1CCN(c2ccc(-c3cc4c(C#N)cccc4c(=O)[nH]3)cn2)CC1` [IQ-051], the IC50 with COLO320DM cells (setting [1]) was below 5 µM. At TNKS1, `COCc1nccn1Cc1ccc(-c2cc3c(C#N)cccc3c(=O)[nH]2)cc1` [IQ-017] came in with an IC50 below 0.05 µM. With `COCc1ccn(Cc2ccc(-c3cc4c(C#N)cccc4c(=O)[nH]3)cc2)n1` [IQ-033], the IC50 was below 0.05 µM at TNKS1 and below 5 µM in the assay on COLO320DM cells (setting [1]). At TNKS1, `N#Cc1cccc2c(=O)[nH]c(-c3ccc(CN)cc3)cc12` [IQ-043] displayed an IC50 below 0.1 µM. On the same count and under the same terms, for `CC(c1ccc(-c2cc3c(C#N)cccc3c(=O)[nH]2)cn1)n1ccnc1` (centres unmarked) [IQ-034] the value was below 0.05 µM; for `CC(c1ccc(-c2cc3c(C#N)cccc3c(=O)[nH]2)cc1)n1ccnc1` (centres unmarked) [IQ-029], below 0.05 µM; for `Cc1nnc(N2CCN(C(C)c3ccc(-c4cc5c(C#N)cccc5c(=O)[nH]4)cc3)CC2)o1` (centres unmarked) [IQ-032], below 0.05 µM. On TNKS1, `COCCN(CCOC)C(=O)c1ccc(-c2cc3c(C#N)cccc3c(=O)[nH]2)cc1` [IQ-008] gave an IC50 below 0.1 µM.

For the compound `Cc1nnc(N2CCN(Cc3ccc(-c4cc5c(C#N)cccc5c(=O)[nH]4)cc3)C(C)(C)C2)o1` [IQ-057], the IC50 at TNKS1 is below 0.05 µM; with COLO320DM cells (setting [1]), below 5 µM. On TNKS1, `Cc1nnc(N2CCN(Cc3ccc(-c4cc5c(C#N)cccc5c(=O)[nH]4)cc3)CC2(C)C)o1` [IQ-058] returned an IC50 below 0.1 µM. Turning to `CC(C)c1nnc(N2CCN(Cc3ccc(-c4cc5c(C#N)cccc5c(=O)[nH]4)cc3)CC2)o1` [IQ-019], the IC50 at TNKS1 was below 0.05 µM. As to `CN(C)Cc1cccc2c(=O)[nH]c(-c3ccc(CN4CCN(C)CC4)cc3)cc12` [IQ-024, 5-Dimethylaminomethyl-3-[4-(4-methyl-piperazin-1-ylmethyl)-phenyl]-2H-isoquinolin-1-one], the IC50 in the assay with COLO320DM cells (setting [1]) is below 5 µM.

`Cc1nccn1Cc1ccc(-c2cc3c(C#N)cccc3c(=O)[nH]2)cc1` [IQ-013]: the IC50 against TNKS1 was < 0.1 µM and < 0.05 µM and 0.018 µM; in the assay with COLO320DM cells (replicate, read-out: cell inhibitory SF50 (COLO320DM), replicate), 1.12 µM. On to `Cc1nnc(N(C)C2CN(Cc3ccc(-c4cc5c(C#N)cccc5c(=O)[nH]4)cc3)C2)o1` [IQ-047], for which the IC50 on TNKS1 was below 0.05 µM; in the assay on COLO320DM cells (setting [1]), below 5 µM. The compound `CC(c1ccc(-c2cc3c(C#N)cccc3c(=O)[nH]2)cc1)N1CC(O)C1` (centres unmarked) [IQ-009, 3-{4-[1-(3-Hydroxy-azetidin-1-yl)-ethyl]-phenyl}-1-oxo-1,2-dihydro-isoquinoline-5-carbonitrile] gave an IC50 against TNKS1 below 0.05 µM. The same measure, in the same setting: for `N#Cc1cccc2c(=O)[nH]c(-c3ccc(C(=O)N(CCO)CCO)cc3)cc12` [IQ-010, 4-(5-Cyano-1-oxo-1,2-dihydro-isoquinolin-3-yl)-N,N-bis-(2-hydroxy-ethyl)-benzamide] the value was below 0.05 µM; for `COCc1ccnn1Cc1ccc(-c2cc3c(C#N)cccc3c(=O)[nH]2)cc1` [IQ-031], below 0.1 µM. For the compound `CN(C(=O)c1ccc(-c2cc3c(C#N)cccc3c(=O)[nH]2)cc1)C1CCN(CC2CC2)CC1` [IQ-006], the IC50 at TNKS1 is below 0.05 µM; in the assay on COLO320DM cells (setting [1]), below 5 µM.
